Laboratory results from patent US12447151B2, “Alkyne derivative, preparation method for same, and uses thereof” (ZHEJIANG HISUN PHARMACEUTICAL CO., LTD., priority 2019, dated 2025).

Assays:
[1] = Metabolic stability in liver microsomes; assay type: in vitro ADME; conditions: human liver microsomes 0.5 mg/mL, 1 μM compound, NADPH 1 mM; read-out: half-life period/(T1/2, min)
Method: The test compound was co-incubated with human liver microsomes, and coenzyme NADPH was added to initiate the reaction. At 0, 5, 15, 30 and 60 minutes, 20 μL of incubation solution was taken out and transferred to 200 μL of acetonitrile containing internal standard to stop the reaction. After protein precipitation, centrifugation was performed at 3,700 rpm for 10 minutes and the supernatant was taken. The supernatant was diluted 1:1 with water and analyzed by LC-MS/MS method. According to the elimination half-life of the test compound in the incubation system, the in vitro intrinsic clearance rate was calculated. Midazolam was used as the internal reference compound and incubated for two aliquots in parallel.
The ratio of peak area of the analyte/internal standard (Aanalyte/AIS) was obtained by the instrument. The remaining percentage (% Control) was calculated from the ratio of Aanalyte/AIS in the non-zero time point sample to the zero time point sample. Ln (% Control) versus incubation time was plotted and a linear fit was performed. The clearance constant (k, min^−1), the clearance half-life (T1/2, min) and the in vitro intrinsic clearance rate (CLint, mL·min^−1·mg^−1 proteins) of the test compound were calculated by the following equations.
Cprotein(mg·mL^−1) refers to the concentration of microsomal protein in the incubation system.

[2] = Oral pharmacokinetics in ICR mice; assay type: in vivo; conditions: male, mouse, plasma, Oral (5 mg/kg); for AUC(0-inf): read-out: Area under the curve AUC0-∞; for bioavailability: read-out: Bioavailability F; for Cmax: read-out: Plasma concentration Cmax
Method: (§1) Using ICR mice as the test animals, the mice were intragastrically administrated with the compound of the present invention. LC/MS/MS method was used to determine the drug concentration in the plasma at different times to study the pharmacokinetic characteristics of the compound of the present invention in mice.
(§2) An appropriate amount of the compound to be tested was weighed, and 0.5% sodium carboxymethylcellulose (containing 0.05% Tween80) was added. The mixture was vortexed, and sonicated so that the solid was ultrasonically dispersed uniformly to obtain a suspension; 100 μL×2 of the preparation were aspirated, and placed in 1.5-mL EP tubes, stored at 2 to 8° C. The concentration of the preparation was 0.5 mg/mL.
Twenty-seven healthy adult ICR male mice were fasted overnight and then intragastrically administered (dosage of administration was 5 mg/kg), and fed 4 hours after administration.
At 0.083 hours, 0.25 hours, 0.5 hours, 1 hour, 2 hours, 4 hours, 8 hours, 12 hours, and 24 hours after administration, 80 μL of blood was collected from the orbital vein. About 0.08 mL of blood was collected, and placed in EDTA-K2 anticoagulation tube. […] The collected plasma was stored at −40 to −20° C. before analysis. The […] method was used to determine the content of the test compound in the plasma of ICR mice after intragastric administration of different compounds.

[3] = molecular target: recombinant human PI3Kβ (Homo sapiens (Human), UniProt P42338); assay: Inhibitory activity on PI3K kinase (ADP-Glo Kinase Assay)
Text: (§3) The following method is used to determine the degree of inhibition of recombinant human PI3Kα, PI3Kβ, PI3Kγ and PI3Kδ kinase activity by the compounds of the present invention under in vitro conditions. Promega's ADP-Glo Kinase Assay Kit (Cat. No. V9102) was used in this method. The above kit was a luminescence kinase detection kit, which was used to detect the ADP content produced by the kinase reaction. The ADP content was positively correlated with the kinase activity. By measuring the ADP content, the inhibition of the compound on the activity of PI3Kα, PI3Kβ, PI3Kγ and PI3Kδ kinases was reflected. […] Recombinant human PI3Kα, PI3Kγ, and PI3Kδ were purchased from Invitrogen, and PI3Kβ was purchased from Promega (category numbers were PI3Kα: PV4788; PI3Kβ: V1751; PI3Kγ: PV4786 and PI3Kδ: PV6451 separately).

[4] = Oral pharmacokinetics in SD rats; assay type: in vivo; conditions: male, rat, plasma, Oral (5 mg/kg); for AUC(0-inf): read-out: Area under the curve AUC0-∞; for bioavailability: read-out: Bioavailability F; for half-life: read-out: Half-life period T1/2 (converted); for Cmax: read-out: Plasma concentration Cmax
Method: as §1, with “SD rats” for “ICR mice”, “as” for “as the”, “rats” for “mice”, “rats.” for “mice.”
as §2, with “obtain a suspension. 100 μL×2” for “obtain a suspension; 100 μL×2”, “of the filtered preparation were” for “of the preparation were”, “at […].” for “at 2 to 8° C.”
Nine healthy adult male SD rats were fasted overnight and then intragastrically administered (dosage of administration was 5 mg/kg), and fed 4 hours after administration.
About 0.2 mL of blood was collected from the jugular vein at 0.083 hours, 0.25 hours, 0.5 hours, 1 hour, 2 hours, 4 hours, 8 hours, 12 hours, and 24 hours after administration, and heparin sodium was used for anticoagulation. The collected blood samples were placed on ice and centrifuged to separate the plasma (centrifugation conditions: 1500 g, 10 minutes). The collected plasma was stored at −40 to −20° C. before analysis. The LC-MS/MS method was used to determine the content of the test compound in the plasma of SD rats after intragastric administration of different compounds.

[5] = molecular target: recombinant human PI3Kγ (Homo sapiens (Human), UniProt P48736); assay: Inhibitory activity on PI3K kinase (ADP-Glo Kinase Assay); assay type: biochemical; conditions: for IC50: ADP-Glo, ATP 10 μM
Text: The following method is used to determine the degree of inhibition of recombinant human PI3Kα, PI3Kβ, PI3Kγ and PI3Kδ kinase activity by the compounds of the present invention under in vitro conditions. Promega's ADP-Glo Kinase Assay Kit (Cat. No. V9102) was used in this method. The above kit was a luminescence kinase detection kit, which was used to detect the ADP content produced by the kinase reaction. The ADP content was positively correlated with the kinase activity. By measuring the ADP content, the inhibition of the compound on the activity of PI3Kα, PI3Kβ, PI3Kγ and PI3Kδ kinases was reflected. For detailed experimental operations, please refer to the kit instructions. Recombinant human PI3Kα, PI3Kγ, and PI3Kδ were purchased from Invitrogen, and PI3Kβ was purchased from Promega (category numbers were PI3Kα: PV4788; PI3Kβ: V1751; PI3Kγ: PV4786 and PI3Kδ: PV6451 separately).

[6] = molecular target: recombinant human PI3Kδ (Homo sapiens (Human), UniProt O00329); assay: as above
Text: as §3

[7] = molecular target: recombinant human PI3Kα (Homo sapiens (Human), UniProt P42336); assay: as above
Sequence of recombinant human PI3Kα (P42336 whole entry): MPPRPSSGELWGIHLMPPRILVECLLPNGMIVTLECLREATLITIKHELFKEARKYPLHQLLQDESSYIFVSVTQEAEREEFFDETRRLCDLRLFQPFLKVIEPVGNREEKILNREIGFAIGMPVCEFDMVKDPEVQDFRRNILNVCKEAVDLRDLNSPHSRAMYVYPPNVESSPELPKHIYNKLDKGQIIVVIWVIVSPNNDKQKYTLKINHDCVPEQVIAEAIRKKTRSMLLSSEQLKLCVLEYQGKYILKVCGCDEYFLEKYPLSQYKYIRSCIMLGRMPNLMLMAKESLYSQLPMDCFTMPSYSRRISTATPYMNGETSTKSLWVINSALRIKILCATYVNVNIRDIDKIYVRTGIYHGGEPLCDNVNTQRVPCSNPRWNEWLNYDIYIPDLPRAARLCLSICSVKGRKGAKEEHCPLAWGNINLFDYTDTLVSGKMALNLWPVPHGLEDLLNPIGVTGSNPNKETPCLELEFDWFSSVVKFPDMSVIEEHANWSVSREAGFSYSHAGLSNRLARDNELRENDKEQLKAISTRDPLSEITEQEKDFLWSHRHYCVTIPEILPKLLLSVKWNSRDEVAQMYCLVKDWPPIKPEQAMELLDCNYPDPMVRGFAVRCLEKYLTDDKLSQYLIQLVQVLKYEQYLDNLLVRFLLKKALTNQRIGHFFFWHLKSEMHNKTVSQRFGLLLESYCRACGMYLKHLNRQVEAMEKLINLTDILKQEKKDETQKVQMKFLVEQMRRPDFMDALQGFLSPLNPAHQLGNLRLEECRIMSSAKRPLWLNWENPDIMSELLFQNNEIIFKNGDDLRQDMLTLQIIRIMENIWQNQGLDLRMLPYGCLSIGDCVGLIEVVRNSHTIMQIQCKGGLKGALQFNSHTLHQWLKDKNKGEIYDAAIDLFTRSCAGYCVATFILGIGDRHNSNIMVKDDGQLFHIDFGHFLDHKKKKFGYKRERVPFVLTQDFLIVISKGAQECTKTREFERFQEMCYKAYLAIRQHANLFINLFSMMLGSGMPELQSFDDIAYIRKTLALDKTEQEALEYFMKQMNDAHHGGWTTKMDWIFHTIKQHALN
Sequence of recombinant human PI3Kα (P27986 whole entry partner): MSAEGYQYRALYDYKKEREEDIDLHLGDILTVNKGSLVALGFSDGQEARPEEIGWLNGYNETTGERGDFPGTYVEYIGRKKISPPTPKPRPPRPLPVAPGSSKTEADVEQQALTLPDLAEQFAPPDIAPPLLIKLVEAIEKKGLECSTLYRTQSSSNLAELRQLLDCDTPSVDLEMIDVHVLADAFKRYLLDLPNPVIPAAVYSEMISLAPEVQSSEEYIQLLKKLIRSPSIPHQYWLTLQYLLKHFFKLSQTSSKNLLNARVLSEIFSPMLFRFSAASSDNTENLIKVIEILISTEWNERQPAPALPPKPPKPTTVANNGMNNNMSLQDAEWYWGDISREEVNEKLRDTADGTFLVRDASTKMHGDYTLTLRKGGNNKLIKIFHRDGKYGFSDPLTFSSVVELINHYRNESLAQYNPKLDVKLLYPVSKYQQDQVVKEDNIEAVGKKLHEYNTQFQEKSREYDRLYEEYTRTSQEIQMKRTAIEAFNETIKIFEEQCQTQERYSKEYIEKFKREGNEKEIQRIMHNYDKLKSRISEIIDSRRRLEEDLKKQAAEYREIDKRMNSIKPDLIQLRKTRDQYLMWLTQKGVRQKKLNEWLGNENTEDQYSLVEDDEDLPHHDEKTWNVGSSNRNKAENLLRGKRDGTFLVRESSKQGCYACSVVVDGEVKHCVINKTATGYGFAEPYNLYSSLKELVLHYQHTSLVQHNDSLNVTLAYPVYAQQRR
Text: as §3

Sequence of recombinant human PI3Kγ (P48736 whole entry): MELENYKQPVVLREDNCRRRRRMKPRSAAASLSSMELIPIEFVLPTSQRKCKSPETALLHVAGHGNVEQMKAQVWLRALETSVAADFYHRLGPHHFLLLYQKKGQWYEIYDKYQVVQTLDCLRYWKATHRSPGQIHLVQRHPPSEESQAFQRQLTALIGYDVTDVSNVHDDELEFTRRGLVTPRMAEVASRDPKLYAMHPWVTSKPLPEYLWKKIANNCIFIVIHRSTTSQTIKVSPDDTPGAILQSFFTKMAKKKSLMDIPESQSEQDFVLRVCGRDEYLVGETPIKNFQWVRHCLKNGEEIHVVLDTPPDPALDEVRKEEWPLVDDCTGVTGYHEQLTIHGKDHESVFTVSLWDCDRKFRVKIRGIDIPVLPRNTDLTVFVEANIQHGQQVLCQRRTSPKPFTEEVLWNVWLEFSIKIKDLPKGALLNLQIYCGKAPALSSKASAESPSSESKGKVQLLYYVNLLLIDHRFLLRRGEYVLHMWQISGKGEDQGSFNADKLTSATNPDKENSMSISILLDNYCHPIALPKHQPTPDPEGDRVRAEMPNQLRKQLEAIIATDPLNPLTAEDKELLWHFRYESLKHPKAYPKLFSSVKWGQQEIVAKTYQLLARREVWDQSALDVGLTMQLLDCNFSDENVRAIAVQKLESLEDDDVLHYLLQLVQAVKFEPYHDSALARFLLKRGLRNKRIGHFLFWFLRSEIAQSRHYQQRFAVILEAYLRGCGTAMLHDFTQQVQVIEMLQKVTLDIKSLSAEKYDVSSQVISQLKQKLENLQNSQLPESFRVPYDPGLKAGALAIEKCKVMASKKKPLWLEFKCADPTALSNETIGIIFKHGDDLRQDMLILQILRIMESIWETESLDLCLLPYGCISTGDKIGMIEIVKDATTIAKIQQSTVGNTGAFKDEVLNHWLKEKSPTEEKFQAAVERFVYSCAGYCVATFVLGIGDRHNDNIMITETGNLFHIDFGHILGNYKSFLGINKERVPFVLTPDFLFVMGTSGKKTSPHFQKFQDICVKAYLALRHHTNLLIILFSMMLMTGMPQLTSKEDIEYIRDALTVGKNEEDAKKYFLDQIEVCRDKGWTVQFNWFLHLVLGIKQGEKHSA
Sequence of recombinant human PI3Kδ (O00329 whole entry): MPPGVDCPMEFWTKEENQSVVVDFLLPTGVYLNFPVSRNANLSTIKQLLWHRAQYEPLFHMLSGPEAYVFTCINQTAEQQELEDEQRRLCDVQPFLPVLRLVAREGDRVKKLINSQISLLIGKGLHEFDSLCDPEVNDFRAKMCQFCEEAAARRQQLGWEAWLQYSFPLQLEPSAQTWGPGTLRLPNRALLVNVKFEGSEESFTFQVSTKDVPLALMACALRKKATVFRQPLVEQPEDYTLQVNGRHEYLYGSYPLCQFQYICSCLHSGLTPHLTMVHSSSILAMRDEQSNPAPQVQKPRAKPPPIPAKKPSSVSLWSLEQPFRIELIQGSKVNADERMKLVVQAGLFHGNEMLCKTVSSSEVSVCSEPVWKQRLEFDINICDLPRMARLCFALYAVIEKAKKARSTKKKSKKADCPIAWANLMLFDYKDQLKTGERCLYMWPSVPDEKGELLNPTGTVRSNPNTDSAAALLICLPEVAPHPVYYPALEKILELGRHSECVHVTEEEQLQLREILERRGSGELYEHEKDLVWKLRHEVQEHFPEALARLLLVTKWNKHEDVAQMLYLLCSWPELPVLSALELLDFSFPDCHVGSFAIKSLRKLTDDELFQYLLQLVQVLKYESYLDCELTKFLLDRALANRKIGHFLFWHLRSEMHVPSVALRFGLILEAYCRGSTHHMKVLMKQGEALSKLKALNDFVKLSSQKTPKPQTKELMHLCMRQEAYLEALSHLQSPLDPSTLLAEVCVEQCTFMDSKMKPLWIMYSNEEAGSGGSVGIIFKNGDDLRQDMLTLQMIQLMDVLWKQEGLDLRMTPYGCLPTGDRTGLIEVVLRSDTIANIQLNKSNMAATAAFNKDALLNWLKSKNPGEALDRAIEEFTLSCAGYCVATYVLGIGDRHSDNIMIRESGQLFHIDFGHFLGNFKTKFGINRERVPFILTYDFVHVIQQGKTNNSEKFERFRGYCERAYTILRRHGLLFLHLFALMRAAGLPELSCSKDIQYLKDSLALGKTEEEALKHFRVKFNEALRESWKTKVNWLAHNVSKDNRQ
Sequence of recombinant human PI3Kδ (P27986 whole entry partner): as the sequence (P27986 whole entry partner) above
Sequence of recombinant human PI3Kβ (P42338 whole entry): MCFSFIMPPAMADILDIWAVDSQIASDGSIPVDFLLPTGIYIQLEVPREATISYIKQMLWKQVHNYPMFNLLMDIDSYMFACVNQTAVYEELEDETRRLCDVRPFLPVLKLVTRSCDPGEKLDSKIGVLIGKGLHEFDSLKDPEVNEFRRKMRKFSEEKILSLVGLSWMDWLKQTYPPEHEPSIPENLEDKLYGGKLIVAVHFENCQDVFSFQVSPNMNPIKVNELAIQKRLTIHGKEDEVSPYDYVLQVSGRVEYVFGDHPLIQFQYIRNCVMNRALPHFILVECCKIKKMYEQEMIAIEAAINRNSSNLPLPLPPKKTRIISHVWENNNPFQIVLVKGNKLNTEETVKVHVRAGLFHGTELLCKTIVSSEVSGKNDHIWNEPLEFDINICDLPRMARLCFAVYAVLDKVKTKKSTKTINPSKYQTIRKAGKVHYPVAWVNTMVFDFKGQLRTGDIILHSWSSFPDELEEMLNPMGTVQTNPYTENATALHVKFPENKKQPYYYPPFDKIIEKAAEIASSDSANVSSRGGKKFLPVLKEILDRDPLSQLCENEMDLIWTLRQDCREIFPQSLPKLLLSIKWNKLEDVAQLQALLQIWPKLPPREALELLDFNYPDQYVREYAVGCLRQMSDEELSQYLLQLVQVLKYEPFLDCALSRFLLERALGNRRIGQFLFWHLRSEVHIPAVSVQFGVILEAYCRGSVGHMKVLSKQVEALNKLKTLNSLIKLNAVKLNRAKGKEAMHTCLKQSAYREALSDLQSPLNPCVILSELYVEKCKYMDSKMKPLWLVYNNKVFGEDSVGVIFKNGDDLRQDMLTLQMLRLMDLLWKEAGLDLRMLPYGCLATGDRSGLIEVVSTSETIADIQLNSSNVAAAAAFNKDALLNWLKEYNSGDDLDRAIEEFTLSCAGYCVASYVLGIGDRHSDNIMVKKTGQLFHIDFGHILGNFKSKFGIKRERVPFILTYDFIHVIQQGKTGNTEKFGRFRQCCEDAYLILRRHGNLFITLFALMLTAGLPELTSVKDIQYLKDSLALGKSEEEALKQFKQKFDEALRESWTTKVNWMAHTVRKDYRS
Sequence of recombinant human PI3Kβ (P27986 whole entry partner): as the sequence (P27986 whole entry partner) above

half-life at 1 μM [1] [min]	AUC(0-inf) [2] [ng·h/mL]	bioavailability [2] [%]	half-life ([2]; read-out: Half-life period T½ (converted)) [h]	Cmax [2] [ng/mL]	IC50 [3] [nM]	AUC(0-inf) [4] [ng·h/mL]	bioavailability [4] [%]	half-life [4] [h]	Cmax [4] [ng/mL]	IC50 [5] [nM]	IC50 (PI3Kα)/IC50(PI3Kγ) ([5]; kinase selectivity for PI3Kγ over PI3Kα)	IC50 (PI3Kβ)/IC50(PI3Kγ) ([5]; kinase selectivity for PI3Kγ over PI3Kβ)	IC50 (PI3Kδ)/IC50(PI3Kγ) ([5]; kinase selectivity for PI3Kγ over PI3Kδ)	IC50 [6] [nM]	IC50 [7] [nM]	SMILES
113																C[C@H](NC(=O)c1c(N)nn2cccnc12)c1nc2cccc(C#Cc3cnn(C)c3)c2c(=O)n1-c1ccccc1 [Compound 21 in WO2015051244A1, reference compound]
11700	7470	33	3.1	898	237	3940	27	5.1	587	0.46	220	515	1002	461	101	C[C@H](NC(=O)c1c(N)nn2cccnc12)c1cc2cccc(C#Cc3cnn(C4CC4)c3)c2c(=O)n1-c1ccccc1 [Example 1, (S)-2-amino-N-(1-(8-((1-cyclopropyl-1H-pyrazol-4-yl)ethynyl)-1-oxo-2-phenyl-1,2-dihydroisoquinolin-3-yl)ethyl)pyrazolo[1,5-a]pyrimidine-3-carboxamide]
574					552					0.7				195	143	C[C@H](NC(=O)c1c(N)nn2cccnc12)c1nc2ccc(F)c(C#Cc3cnn(C4CC4)c3)c2c(=O)n1-c1ccccc1 [Example 3, (S)-2-amino-N-(1-(5-((1-cyclopropyl-1H-pyrazol-4-yl)ethynyl)-6-fluoro-4-oxo-3-phenyl-3,4-dihydroquinazolin-2-yl)ethyl)pyrazolo[1,5-a]pyrimidine-3-carboxamide]
195	2660	20		484		1950	10	2.4	358							C[C@H](NC(=O)c1c(N)nn2cccnc12)c1cc2cccc(C#Cc3cnn(C)c3)c2c(=O)n1-c1ccccc1 [IPI-549, reference compound]
